Results reported in US20180235900A1, “SUBCUTANEOUS RESERVOIR DEVICE AND METHOD OF MANUFACTURE” (Research Triangle Institute, priority 2017, published 2018).
Where a name gives a salt, the structure may show the parent alone.

Assay: TAF stability in excipients (chromatographic purity by HPLC)
Format: physicochemical
Details: excess TAF dissolved in excipient at 37° C., quantified by HPLC
Description: Excipients on the FDA GRAS list of acceptable compounds were evaluated for TAF stability and short-duration TAF release. Devices containing TAF in combination with selected GRAS excipients were evaluated in prototype devices 60 days, presented in FIG. 8. […] Tocopherol was not chosen because of the high release rate of TAF near 3.5 mg/day.

In the case of `CC(C)OC(=O)[C@H](C)N[P@](=O)(CO[C@H](C)Cn1cnc2c(N)ncnc21)Oc1ccccc1` [TAF std., Tenofovir Alafenamide Fumarate], the “Chromatographic Purity” value is reported as 99.88%.
